Data set [1] can be described thus: Entry of "passive" markers into brain and CSF. Particulars: passive marker, all ages (E19, P4, adults), 30 minutes. On the procedure:
Experimental procedure. In acute drug experiments, a single dose was injected that included traces of [ ^3H]-labelled drug (20µCi adults, 2µCi newborns). In chronic experiments, doses of unlabelled drug were given twice daily (09.00 and 17.00h) for four days before a final injection on the 5 ^th day identical to acute experiments. In passive marker experiments, all dosing was acute and contained only the [ ^3H]- or [ ^14C]-labelled compound (20µCi adults, 2µCi newborns).
In all experiments involving postnatal animals, injections were intraperitoneal (i.p.). In pregnant animals for fetal drug entry studies, the final injection of the radiolabelled marker was given intravenously (i.v.), as the peritoneal cavity required opening prior to the sampling period to gain access to the fetuses. For passive markers (L-glucose, sucrose and glycerol), fetal animals were individually injected i.p. while still within the uterine horn. All experiments took place between 09.00 and 15.00h. All pregnancy studies were completed with a single treatment group on one day. Postnatal groups were conducted with a single treatment group on one day or with the chronic group completed prior to the acute group.
Sample collection. Samples were collected 30 minutes after the final injection. This duration was chosen partly to limit any potential metabolism of the drugs and markers used but also to allow enough time for i.p. injected markers to reach the blood stream and, from there, to access the brain parenchyma across brain barriers, as well as to limit the CSF sink effect that could influence drug levels ( [Bito et al., 1966]). Thirty minutes is also within the half-life of these drugs ( [Adedoyin et al., 1987]; [Harrison & Gibaldi, 1976]; Lin & Levy, 1963). The other reason a 30-minute duration was chosen is that in the case of exposed fetal rat pups, it is difficult to maintain them in a reasonable physiological state for long periods due to deterioration of placental perfusion. Therefore, for comparative purposes, all studies were conducted at the same time.
For adult and newborn (P4) experiments, animals were terminally anaesthetized using inhaled isofluorane (IsoFlo 100% w/w, Abbott Laboratories). Blood samples were collected from the right cardiac ventricle, CSF from the cisterna magna (Habgood et al., 1992) and cortical segments of brain tissue dorsal to the ventricle of the frontal/parietal lobes, as previously described ( [Koehn et al., 2019]). Blood and CSF sampling from the P4 animals was terminal and would thus not have affected the physiological state of the animals during the experiment.
Sample preparation. Samples were processed immediately after collection. Blood was centrifuged at 7000rpm for five minutes and the plasma separated. CSF samples were examined microscopically for traces of red blood cells and discarded if contaminated (Habgood et al., 1992). In all experiments, the radioactivity in the injectate was also measured to confirm the uniformity of the injected material. All samples were weighed and transferred into scintillation vials. Soluene350 (0.5ml, PerkinElmer) was added to the brain samples. After being incubated at 36°C overnight to allow the tissue to solubilize, two drops of glacial acetic acid (Sigma) were added to neutralize the strongly alkaline Soluene350. All samples were then mixed with 5ml of scintillation fluid (Emulsifier-safe, PerkinElmer) before being transferred into the liquid scintillation counter (Tri-Carb 4910 TR, PerkinElmer) to count radioactivity disintegrations per minute (DPM) over five minutes each with luminescence correction on. Blank vials containing the same tissues without radioactivity were also counted alongside the samples to establish the level of background counts, which were always subtracted from the radioactivity counts of the corresponding experimental samples.
BrainorCSFtransfer=BrainorCSFDPM/μl/plasmaDPM/μl×100%

Data set [2] is described as follows: Placental transfer at E19 (fetal/maternal plasma concentration ratio). The note with it: E19, passive permeability markers, acute; for Fetal/Maternal plasma concentration ratio: mean ± SD.

The text below walks through data of article PMC6799938, “Determinants of drug entry into the developing brain” (F1000Research, 2019).

For `O=C[C@@H](O)[C@H](O)[C@@H](O)[C@@H](O)CO` [L-Glucose, L-glucose], in data set [1], the Brain/Plasma Ratio result is given as “very low” and the CSF/Plasma Ratio entry is recorded as “very low”. In addition, in data set [2], the “Fetal/Maternal plasma concentration ratio, range” value is reported as “(8.3 - 27.7) %” and the “Fetal/Maternal plasma concentration ratio” value is recorded as 16.7 ± 6.5%. Further, the “Fetal/Maternal plasma concentration ratio” value in data set [2] (listed as L-glucose) is 16.7%.
